From the SangsterLogP compilation

Assay: method code SF-AS/HPLC, from DOI: 10.1039/a908863f

Structure (SMILES) | logP
C=CC(=O)OCCCCCCCCCCCCCCCCCC | 7.1
C=CC(=O)OCCOCCO | -0.3
C=CC(=O)OCCCOC(=O)C=C | 0.87
C=CC(=O)OCCCCCCCCCC | 5.46
C=CC(=O)OC(C)COc1ccc(C(C)(C)c2ccc(OCC(C)OC(=O)C=C)cc2)cc1 (stereo not drawn) | 6.1
C=CC(=O)Oc1ccccc1 | 1.94
C=CC(=O)OCC(COC(=O)C=C)(COC(=O)C=C)COC(=O)C=C | 2.23
C=CC(=O)OCCOCCOCCOC(=O)C=C | 0.65
C=CC(=O)OCC(CC)(COC(=O)C=C)COC(=O)C=C | 2.75

The remaining lines, values ahead:

logP | Structure (SMILES)
2.5 | C=CC(=O)OCC(C)(C)COC(=O)C=C
3.08 | C=CC(=O)OCCCCCCOC(=O)C=C
0.47 | C=CC(=O)OCCOCCOCCOCCOC(=O)C=C
0.79 | C=CC(=O)OCCOCCOC(=O)C=C
